In brackets after ≈: the same amount, converted by molar mass. Like-named read-outs stand apart in the source and are kept apart here.
Assays:
[1] = test system: M. tuberculosis transformed with luxABCDE; assay: microbe, parasite or virus in culture; format: cell-based, Mycobacterium tuberculosis
[2] = test system: non-replicating cultures of M. tuberculosis H37Rv transformed with lux ABCDE; assay: microbe, parasite or virus in culture; format: cell-based, Mycobacterium tuberculosis; conditions: for MIC90 / MIC: Mycobacterium tuberculosis, H37RV, ≥90% reduction in luminescence, read-out: MIC90 LORA; for MIC90 LORA/MABA: ratio of LORA MIC90 to MABA MIC90
[3] = Mycobacterium tuberculosis, 168 h, […], ≥99% reduction in luminescence, read-out: MBC99 Day 7 (Lux Assay) MBC

Row | Structure (SMILES) | MBC99 Day 7 (Lux Assay) MBC Rel to RMP [1] | MBC [1, 3] | MIC90 LORA Rel to RMP [2] | MIC90 [2] | MIC90 LORA/MABA [2] | MIC90 ([1]; Mycobacterium tuberculosis, 168 h, day 7 of time-kill study) | MBC ([1]; Mycobacterium tuberculosis, 168 h, day 7 of time-kill study, read-out: MBC99) | more potent than RMP in terms of day 7 MBC ([1]; day 7) | MIC [2]
1 | CO[C@H]1/C=C/O[C@@]2(C)Oc3c(C)c(O)c4c(=O)c(c5oc6cccc(OCc7ccc(CN8CCN(C)CC8)cc7)c6nc-5c4c3C2=O)NC(=O)/C(C)=C\C=C\[C@H](C)[C@H](O)[C@@H](C)[C@@H](O)[C@@H](C)[C@H](OC(C)=O)[C@@H]1C [Compound 16e, (7S,9E,11S,12R,13S,14R,15R,16R,17S,18S,19E,21Z)-2,15,17-trihydroxy-11-methoxy-3,7,12,14,16,18,22-heptamethyl-32-({4-[(4-methylpiperazin-1-yl)methyl]phenyl}methoxy)-6,23,37-trioxo-8,27,38-trioxa-24,34-diazahexacyclo[23.11.1.1^4,7.0^5,36.0^26,35.0^28,33]octatriaconta-1,3,5(36)9,19,21,25,28,30,32,34-undecaen-13-yl acetate] | 0.14 | 0.06 µM | 1.3 | 0.036 µM | 5.6 | – | – | – | –
2 | CO[C@H]1/C=C/O[C@@]2(C)Oc3c(C)c(O)c4c(=O)c(c5oc6cc(N7CCN(CC(C)C)CC7)cc(OCc7ccc(CN8CCOCC8)cc7)c6nc-5c4c3C2=O)NC(=O)/C(C)=C\C=C\[C@H](C)[C@H](O)[C@@H](C)[C@@H](O)[C@@H](C)[C@H](OC(C)=O)[C@@H]1C [Compound 17e, (7S,9E,11S,12R,13S,14R,15R,16R,17S,18S,19E,21Z)-2,15,17-Trihydroxy-11-methoxy-3,7,12,14,16,18,22-heptamethyl-30-[4-(2-methylpropyl)piperazin-1-yl]-32-({4-[(morpholin-4-yl)methyl]phenyl}methoxy)-6,23,37-trioxo-8,27,38-trioxa-24,34-diazahexacyclo[23.11.1.1^4,7.0^5,36.0^26,35.0^28,33]octatriaconta-1(36)2,4,9,19,21,25,28,30,32,34-undecaen-13-yl acetate] | 0.20 | 0.093 µM | 0.11 | – | 1.9 | 0.009 µM | 0.093 µM | approximately 10 fold | 0.0094 µM
3 | CO[C@H]1/C=C/O[C@@]2(C)Oc3c(C)c(O)c4c(=O)c(c5oc6cc(N7CCN(C(=O)C(C)(C)C)CC7)cc(OCc7ccc(CN8CCOCC8)cc7)c6nc-5c4c3C2=O)NC(=O)/C(C)=C\C=C\[C@H](C)[C@H](O)[C@@H](C)[C@@H](O)[C@@H](C)[C@H](OC(C)=O)[C@@H]1C [Compound 17f, (7S,9E,11S,12R,13S,14R,15R,16R,17S,18S,19E,21Z)-30-[4-(2,2-Dimethylpropanoyl)-piperazin-1-yl]-2,15,17-trihydroxy-11-methoxy-3,7,12,14,16,18,22-heptamethyl-32-({4-[(morpholin-4-yl)methyl]phenyl}methoxy)-6,23,37-trioxo-8,27,38-trioxa-24,34-diazahexacyclo[23.11.1.1^4,7.0^5,36.0^26,35.0^28,33]octatriaconta-1(36)2,4,9,19,21,25,28,30,32,34-undecaen-13-yl acetate] | – | > 0.1 µM | 1.8 | – | 14 | – | – | – | 0.369 µM
4 | CCC(=O)N1CCN(c2cc(OCc3ccc(CN4CCOCC4)cc3)c3nc4c5c6c7c(C)c(O)c5c(=O)c(c-4oc3c2)NC(=O)/C(C)=C\C=C\[C@H](C)[C@H](O)[C@@H](C)[C@@H](O)[C@@H](C)[C@H](OC(C)=O)[C@H](C)[C@@H](OC)/C=C/O[C@@](C)(O7)C6=O)CC1 [Compound 17g, (7S,9E,11S,12R,13S,14R,15R,16R,17S,18S,19E,21Z)-2,15,17-Trihydroxy-11-methoxy-3,7,12,14,16,18,22-heptamethyl-32-({4-[(morpholin-4-yl)methyl]phenyl}methoxy)-6,23,37-trioxo-30-(4-propanoylpiperazin-1-yl)-8,27,38-trioxa-24,34-diazahexacyclo-[23.11.1.1^4,7.0^5,36.0^26,35.0^28,33]octatriaconta-1(36)2,4,9,19,21,25,28,30,32,34-undecaen-13-yl acetate] | – | > 0.1 µM | 0.3 | 0.065 µM | 5.4 | – | – | – | –
5 | CO[C@H]1/C=C/O[C@@]2(C)Oc3c(C)c(O)c4c(=O)c(c5oc6cc(N7CCN(C8CCN(C)CC8)CC7)cc(OCc7ccc(CN8CCOCC8)cc7)c6nc-5c4c3C2=O)NC(=O)/C(C)=C\C=C\[C@H](C)[C@H](O)[C@@H](C)[C@@H](O)[C@@H](C)[C@H](OC(C)=O)[C@@H]1C [Compound 17h, (7S,9E,11S,12R,13S,14R,15R,16R,17S,18S,19E,21Z)-2,15,17-trihydroxy-11-methoxy-3,7,12,14,16,18,22-heptamethyl-30-[4-(1-methylpiperidin-4-yl)piperazin-1-yl]-32-{[4-(morpholin-4-ylmethyl)phenyl]methoxy}-6,23,37-trioxo-8,27,38-trioxa-24,34-diazahexacyclo-[23.11.1.1^4,7.0^5,36.0^26,35.0^28,33]octatriaconta-1,3,5(36)9,19,21,25,28,30,32,34-undecaen-13-yl acetate] | – | > 0.1 µM | 12 | 0.318 µM | 9.0 | – | – | – | –
6 | CO[C@H]1/C=C/O[C@@]2(C)Oc3c(C)c(O)c4c(=O)c(c5oc6cc(N7CCN(CC(=O)O)CC7)cc(OCc7ccc(CN8CCOCC8)cc7)c6nc-5c4c3C2=O)NC(=O)/C(C)=C\C=C\[C@H](C)[C@H](O)[C@@H](C)[C@@H](O)[C@@H](C)[C@H](OC(C)=O)[C@@H]1C [Compound 17i] | – | > 0.1 µM | 9.2 | – | 9.5 | – | – | – | 0.247 µM (≈ 0.28 µg/mL)
7 | CO[C@H]1/C=C/O[C@@]2(C)Oc3c(C)c(O)c4c(=O)c(c5oc6cc(N7CCS(=O)(=O)CC7)cc(OCc7ccc(CN8CCOCC8)cc7)c6nc-5c4c3C2=O)NC(=O)/C(C)=C\C=C\[C@H](C)[C@H](O)[C@@H](C)[C@@H](O)[C@@H](C)[C@H](OC(C)=O)[C@@H]1C [Compound 17j, (7S,9E,11S,12R,13S,14R,15R,16R,17S,18S,19E,21Z)-30-(1,1-dioxothiomorpholin-4-yl)-2,15,17-trihydroxy-11-methoxy-3,7,12,14,16,18,22-heptamethyl-32-([4-(morpholin-4-ylmethyl)phenyl]methoxy)-6,23,37-trioxo-8,27,38-trioxa-24,34-diazahexacyclo-[23.11.1.1^4,7.0^5,36.0^26,35.0^28,33]octatriaconta-1,3,5(36)9,19,21,25,28,30,32,34-undecaen-13-yl acetate] | – | > 0.1 µM | – | – | – | – | – | – | > 0.02 µM
8 | CO[C@H]1/C=C/O[C@@]2(C)Oc3c(C)c(O)c4c(=O)c(c5oc6cc(N7CCC(C(=O)O)CC7)cc(OCc7ccc(CN8CCOCC8)cc7)c6nc-5c4c3C2=O)NC(=O)/C(C)=C\C=C\[C@H](C)[C@H](O)[C@@H](C)[C@@H](O)[C@@H](C)[C@H](OC(C)=O)[C@@H]1C [Compound 17k] | – | > 0.1 µM | – | – | – | – | – | – | > 0.02 µM
9 | CO[C@H]1/C=C/O[C@@]2(C)Oc3c(C)c(O)c4c(=O)c(c5oc6cc(N7CCN(C(=O)c8ccccc8)CC7)cc(OCc7ccc(CN8CCOCC8)cc7)c6nc-5c4c3C2=O)NC(=O)/C(C)=C\C=C\[C@H](C)[C@H](O)[C@@H](C)[C@@H](O)[C@@H](C)[C@H](OC(C)=O)[C@@H]1C [Compound 17m, (7S,9E,11S,12R,13S,14R,15R,16R,17S,18S,19E,21Z)-30-(4-benzoylpiperazin-1-yl)-2,15,17-trihydroxy-1-methoxy-3,7,12,14,16,18,22-heptamethyl-32-{[4-(morpholin-4-ylmethyl)phenyl]methoxy}-6,23,37-trioxo-8,27,38-trioxa-24,34-diazahexacyclo-[23.11.1.1^4,7.0^5,36.0^26,35.0^28,33]octatriaconta-1,3,5(36)9,19,21,25,28,30,32,34-undecaen-13-yl acetate] | 0.48 | 0.217 µM | 1.4 | 0.072 µM | 4.2 | – | – | – | –
10 | CO[C@H]1/C=C/O[C@@]2(C)Oc3c(C)c(O)c4c(=O)c(c5oc6cc(N7CCN(C(=O)c8ccncc8)CC7)cc(OCc7ccc(CN8CCOCC8)cc7)c6nc-5c4c3C2=O)NC(=O)/C(C)=C\C=C\[C@H](C)[C@H](O)[C@@H](C)[C@@H](O)[C@@H](C)[C@H](OC(C)=O)[C@@H]1C [Compound 17n, 7S,9E,11S,12R,13S,14R,15R,16R,17S,18S,19E,21Z)-2,15,17-trihydroxy-11-methoxy-3,7,12,14,16,18,22-heptamethyl-32-{[4-(morpholin-4-ylmethyl)phenyl]methoxy}-6,23,37-trioxo-30-{4-[(pyridin-4-yl)carbonyl]piperazin-1-yl}-8,27,38-trioxa-24,34-diazahexacyclo[23.11.1.1^4,7.0^5,36.0^26,35.0^28,33]octatriaconta-1,3,5(36)9,19,21,25,28,30,32,34-undecaen-13-yl acetate] | 0.70 | 0.315 µM | 4.7 | 0.235 µM | 3.2 | – | – | – | –
11 | CO[C@H]1/C=C/O[C@@]2(C)Oc3c(C)c(O)c4c(=O)c(c5oc6cc(N7CCOC(CN(C)C)C7)cc(OCc7ccc(CN8CCOCC8)cc7)c6nc-5c4c3C2=O)NC(=O)/C(C)=C\C=C\[C@H](C)[C@H](O)[C@@H](C)[C@@H](O)[C@@H](C)[C@H](OC(C)=O)[C@@H]1C (stereo partly drawn) [Compound 17o, (7S,9E,11S,12R,13S,14R,15R,16R,17S,18S,19E,21Z)-30-{2-[(dimethylamino)methyl]morpholin-4-yl}-2,15,17-trihydroxy-11-methoxy-3,7,12,14,16,18,22-heptamethyl-32-{[4-(morpholin-4-ylmethyl)phenyl]methoxy}-6,23,37-trioxo-8,27,38-trioxa-24,34-diazahexacyclo[23.11.1.1^4,7.0^5,36.0^26,35.0^28,33]octatriaconta-1,3,5(36)9,19,21,25,28,30,32,34-undecaen-13-yl acetate] | 0.28 | 0.128 µM | 2.1 | 0.106 µM | 19 | – | – | – | –
